Measured values from patent US20240415914A1, “Water Dispersible Cannabinoid Compositions” (priority 2021, published 2024).

Assay: Stability of cannabinoid and Vitamin E components of Beverage 1 (AB White) stored at 8° C. and 21-25° C., LCMSMS over 570 days
Format: physicochemical
Settings: for Chemical stability over the entire period (result in words): AB White, 570 days; for Stability in AB White, 8° C. (content by LCMSMS): beverage stored at 8° C.; for Stability in AB White, 21-25° C. (content by LCMSMS): beverage stored at 21-25° C.
Experimental: The LCMSMS was calibrated for 0-1000 ng/ml cannabinoids with the same resin material used in the preparation of the concentrates. At each time period, 100 ml of beverage was diluted with 10 ml of methanol and injected into the LCMSMS for analysis.

CCCCCc1cc(O)c2c(c1)OC(C)(C)[C@@H]1CCC(C)=C[C@@H]21 [D9 THC, delta-9-tetrahydrocannabinol, reference compound]
Chemical stability over the entire period (result in words) (stored at 8° C.): high degree of stability | Chemical stability over the entire period (result in words) (stored at 21-25° C.): high degree of stability | Stability in AB White, 8° C. (content by LCMSMS) (day 0): 12.2 µg/mL | Stability in AB White, 8° C. (content by LCMSMS) (day 1): 12.20 µg/mL | Stability in AB White, 8° C. (content by LCMSMS) (day 2): 11.91 µg/mL | Stability in AB White, 8° C. (content by LCMSMS) (day 3): 12.25 µg/mL | Stability in AB White, 8° C. (content by LCMSMS) (day 5): 12.11 µg/mL | Stability in AB White, 8° C. (content by LCMSMS) (day 8): 11.83 µg/mL | Stability in AB White, 8° C. (content by LCMSMS) (day 9): 12.14 µg/mL | Stability in AB White, 8° C. (content by LCMSMS) (day 10): 12.07 µg/mL | Stability in AB White, 8° C. (content by LCMSMS) (day 11): 11.83 µg/mL | Stability in AB White, 8° C. (content by LCMSMS) (day 12): 11.88 µg/mL | Stability in AB White, 8° C. (content by LCMSMS) (day 15): 12.08 µg/mL | Stability in AB White, 8° C. (content by LCMSMS) (day 16): 12.18 µg/mL | Stability in AB White, 8° C. (content by LCMSMS) (day 17): 12.05 µg/mL | Stability in AB White, 8° C. (content by LCMSMS) (day 18): 12.00 µg/mL | Stability in AB White, 8° C. (content by LCMSMS) (day 19): 12.11 µg/mL | Stability in AB White, 8° C. (content by LCMSMS) (day 22): 11.97 µg/mL | Stability in AB White, 8° C. (content by LCMSMS) (day 23): 12.03 µg/mL | Stability in AB White, 8° C. (content by LCMSMS) (day 24): 11.87 µg/mL | Stability in AB White, 8° C. (content by LCMSMS) (day 25): 11.99 µg/mL | Stability in AB White, 8° C. (content by LCMSMS) (day 26): 11.97 µg/mL | Stability in AB White, 8° C. (content by LCMSMS) (day 29): 12.25 µg/mL | Stability in AB White, 8° C. (content by LCMSMS) (day 30): 12.05 µg/mL | Stability in AB White, 8° C. (content by LCMSMS) (day 60): 11.77 µg/mL | Stability in AB White, 8° C. (content by LCMSMS) (day 90): 11.92 µg/mL | Stability in AB White, 8° C. (content by LCMSMS) (day 120): 11.79 µg/mL | Stability in AB White, 8° C. (content by LCMSMS) (day 150): 12.07 µg/mL | Stability in AB White, 8° C. (content by LCMSMS) (day 180): 11.66 µg/mL | Stability in AB White, 8° C. (content by LCMSMS) (day 210): 11.79 µg/mL | Stability in AB White, 8° C. (content by LCMSMS) (day 240): 11.70 µg/mL | Stability in AB White, 8° C. (content by LCMSMS) (day 270): 11.98 µg/mL | Stability in AB White, 8° C. (content by LCMSMS) (day 300): 11.70 µg/mL | Stability in AB White, 8° C. (content by LCMSMS) (day 330): 11.68 µg/mL | Stability in AB White, 8° C. (content by LCMSMS) (day 360): 11.88 µg/mL | Stability in AB White, 8° C. (content by LCMSMS) (day 390): 11.85 µg/mL | Stability in AB White, 8° C. (content by LCMSMS) (day 420): 11.77 µg/mL | Stability in AB White, 8° C. (content by LCMSMS) (day 450): 11.80 µg/mL | Stability in AB White, 8° C. (content by LCMSMS) (day 480): 11.60 µg/mL | Stability in AB White, 8° C. (content by LCMSMS) (day 510): 11.33 µg/mL | Stability in AB White, 8° C. (content by LCMSMS) (day 540): 11.27 µg/mL | Stability in AB White, 8° C. (content by LCMSMS) (day 570): 11.21 µg/mL | Stability in AB White, 21-25° C. (content by LCMSMS) (day 0): 12.2 µg/mL | Stability in AB White, 21-25° C. (content by LCMSMS) (day 1): 11.8 µg/mL | Stability in AB White, 21-25° C. (content by LCMSMS) (day 2): 12.0 µg/mL | Stability in AB White, 21-25° C. (content by LCMSMS) (day 3): 11.9 µg/mL | Stability in AB White, 21-25° C. (content by LCMSMS) (day 5): 12.1 µg/mL | Stability in AB White, 21-25° C. (content by LCMSMS) (day 8): 12.3 µg/mL | Stability in AB White, 21-25° C. (content by LCMSMS) (day 9): 11.8 µg/mL | Stability in AB White, 21-25° C. (content by LCMSMS) (day 10): 11.7 µg/mL | Stability in AB White, 21-25° C. (content by LCMSMS) (day 11): 12.1 µg/mL | Stability in AB White, 21-25° C. (content by LCMSMS) (day 12): 11.9 µg/mL | Stability in AB White, 21-25° C. (content by LCMSMS) (day 15): 12.1 µg/mL | Stability in AB White, 21-25° C. (content by LCMSMS) (day 16): 12.1 µg/mL | Stability in AB White, 21-25° C. (content by LCMSMS) (day 17): 11.9 µg/mL | Stability in AB White, 21-25° C. (content by LCMSMS) (day 18): 11.8 µg/mL | Stability in AB White, 21-25° C. (content by LCMSMS) (day 19): 12.3 µg/mL | Stability in AB White, 21-25° C. (content by LCMSMS) (day 22): 11.9 µg/mL | Stability in AB White, 21-25° C. (content by LCMSMS) (day 23): 12.0 µg/mL | Stability in AB White, 21-25° C. (content by LCMSMS) (day 24): 12.1 µg/mL | Stability in AB White, 21-25° C. (content by LCMSMS) (day 25): 12.3 µg/mL | Stability in AB White, 21-25° C. (content by LCMSMS) (day 26): 12.1 µg/mL | Stability in AB White, 21-25° C. (content by LCMSMS) (day 29): 11.9 µg/mL | Stability in AB White, 21-25° C. (content by LCMSMS) (day 30): 11.9 µg/mL | Stability in AB White, 21-25° C. (content by LCMSMS) (day 60): 11.9 µg/mL | Stability in AB White, 21-25° C. (content by LCMSMS) (day 90): 12.0 µg/mL | Stability in AB White, 21-25° C. (content by LCMSMS) (day 120): 11.7 µg/mL | Stability in AB White, 21-25° C. (content by LCMSMS) (day 150): 11.7 µg/mL | Stability in AB White, 21-25° C. (content by LCMSMS) (day 180): 11.9 µg/mL | Stability in AB White, 21-25° C. (content by LCMSMS) (day 210): 11.4 µg/mL | Stability in AB White, 21-25° C. (content by LCMSMS) (day 240): 11.7 µg/mL | Stability in AB White, 21-25° C. (content by LCMSMS) (day 270): 11.9 µg/mL | Stability in AB White, 21-25° C. (content by LCMSMS) (day 300): 12.0 µg/mL | Stability in AB White, 21-25° C. (content by LCMSMS) (day 330): 11.4 µg/mL | Stability in AB White, 21-25° C. (content by LCMSMS) (day 360): 11.7 µg/mL | Stability in AB White, 21-25° C. (content by LCMSMS) (day 390): 11.4 µg/mL | Stability in AB White, 21-25° C. (content by LCMSMS) (day 420): 11.7 µg/mL | Stability in AB White, 21-25° C. (content by LCMSMS) (day 450): 11.7 µg/mL | Stability in AB White, 21-25° C. (content by LCMSMS) (day 480): 11.2 µg/mL | Stability in AB White, 21-25° C. (content by LCMSMS) (day 510): 11.2 µg/mL | Stability in AB White, 21-25° C. (content by LCMSMS) (day 540): 11.2 µg/mL | Stability in AB White, 21-25° C. (content by LCMSMS) (day 570): 11.2 µg/mL
